The source of these data is US12611434B2, “Bifidobacterium brevis and its application in preventing or alleviating psoriasis thereof” (Jiangnan University, priority 2020, dated 2026).

Common to all, as to format: in vivo, BALB/c female mice
One test deals with IL-23. As to the kind of experiment: IL-23 content in skin of psoriasis mice by ELISA kit. As to conditions: compared with model group; intragastric daily (bacteria 0.2 mL of 1×10^9 CFU/mL; methotrexate 1 mg/kg/day); back skin, 1st day of week 4. An excerpt: (§1) 6 to 8-week-old SPF-class BALB/c female mice were divided into 4 groups: a normal group, a model group, a positive reference group (hereinafter referred to as PRG) and experimental groups, where the experimental groups included a CCFM1078 group intragastrically administrated with the B. breve CCFM1078 and a B. breve 1 group intragastrically administrated with the B. breve 1, with 6 animals in each group. All mice were raised in the Experimental Animal Center of Jiangnan University and fed with ordinary feed, at a constant temperature of 21 to 26° C. and at the humidity of 40 to 70%, with noise of less than or equal to 60 dB, and animal illumination of 15 to 20 LX (all animal experiment procedures were reviewed and approved by the Animal welfare and Ethics Management Committee of Jiangnan University).
The experimental cycle was a total of 3 weeks, and modeling was performed in week 3. The back of the mice was depilated the day before modeling, in an area of about 2.5 cm×2.5 cm. […] The mice were sacrificed on the 1st day of week 4, a part of the skin of the back depilated region of mice was taken and stored at −80° C., and the content of IL-23 in the skin was detected by an ELISA kit.

The subject of a further test is IL-22. Description: IL-22 content in skin of psoriasis mice by ELISA kit. Particulars: compared with model group; intragastric daily (bacteria 0.2 mL of 1×10^9 CFU/mL; methotrexate 1 mg/kg/day); back skin, 1st day of week 4.
From the text: as §1
The experimental cycle was a total of 3 weeks, and modeling was performed in week 3. The back of the mice was depilated the day before modeling, in an area of about 2.5 cm×2.5 cm. […] The mice were sacrificed on the 1st day of week 4, a part of the skin of the back depilated region of mice was taken and stored at −80° C., and the content of IL-22 in the skin was detected by an ELISA kit.
On the technique in general: In an ELISA, binding on a coated surface is turned into a signal by an enzyme label.

For another test, the system named is IL-17. Description: IL-17 content in skin of psoriasis mice by ELISA kit. As to conditions: compared with model group; intragastric daily (bacteria 0.2 mL of 1×10^9 CFU/mL); back skin, 1st day of week 4.
From the text: as §1
The experimental cycle was a total of 3 weeks, and modeling was performed in week 3. The back of the mice was depilated the day before modeling, in an area of about 2.5 cm×2.5 cm. […] The mice were sacrificed on the 1st day of week 4, a part of the skin of the back depilated region of mice was taken and stored at −80° C., and the content of IL-17 in the skin was detected by an ELISA kit.

SMILES strings stand for the structures.

Consider `CN(Cc1cnc2nc(N)nc(N)c2n1)c1ccc(C(=O)N[C@@H](CCC(=O)O)C(=O)O)cc1` [methotrexate], for which the “decrease of IL-23 content in the skin” value with IL-23 came out at 43.8%. Further, in the test on IL-22, the “decrease of IL-22 content in the skin” value is on record as 41.8%. In the test with IL-17, the “decrease of IL-17 content in the skin” value was 24.6%.
